Reference: PubChem BioAssay (NCI)
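Method: 48-hour compound exposure of cells in 96-well plates, five concentrations, linear interpolation of endpoints. The concentration for 50% growth inhibition is given as GI50. TGI denotes the concentration required for complete inhibition of growth.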 Where a SMILES comes first, the peptide text is derived from it. [ ]: non-standard residue; d: D form. The star is where a group is joined. NMeAc5c = CNC1(C(=O)O)CCCC1; Boc = CC(C)(C)OC(=O)*; OBn = c1ccc(CO*)cc1

Assays:
Assay in all cases: NCI anticancer screen, dose series, 48 h
U251 CNS = system: U251 CNS
786-0 renal = system: 786-0 renal
T-47D breast = system: T-47D breast
A549 NSCLC = system: A549 NSCLC
HCT-116 colon = system: HCT-116 colon
TK-10 renal = system: TK-10 renal
SF-539 CNS = system: SF-539 CNS
UO-31 renal = system: UO-31 renal
UACC-257 melanoma = system: UACC-257 melanoma
SN12C renal = system: SN12C renal
SNB-19 CNS = system: SNB-19 CNS

SMILES | TGI (U251 CNS) | TGI (786-0 renal) | TGI (T-47D breast) | TGI (A549 NSCLC) | TGI (HCT-116 colon) | TGI (TK-10 renal) | TGI (SF-539 CNS) | TGI (UO-31 renal) | TGI (UACC-257 melanoma) | TGI (SN12C renal) | TGI (SNB-19 CNS) | GI50 (SN12C renal)
CN1CCN(C2=NCCO2)CC1 | > 100 µM | > 100 µM | > 100 µM | > 100 µM | > 100 µM | > 100 µM | > 100 µM | > 100 µM | > 100 µM | > 100 µM | > 100 µM | –
NC(N)=N/N=C/c1c(-c2ccc(N)cc2)nc2sccn12 | 64.1 µM | 62 µM | 90.3 µM | 47.6 µM | 59.2 µM | 40.9 µM | 63.9 µM | 39.2 µM | > 100 µM | 48.7 µM | 69.1 µM | –
C=CC1(C)CCC2C(=CCC3C2(C)CC(O)C(O)C3(C)COC2OC(C(=O)O)C(O)C(O)C2O)C1 (configuration not stated) (tested in a mixture with another compound) | > 100 µM | > 100 µM | > 100 µM | > 100 µM | > 100 µM | > 100 µM | > 100 µM | > 100 µM | > 100 µM | > 100 µM | > 100 µM | –
O=C1C=CC(=O)c2c1ccc1c3ccccc3n(CCCCCCCCCCCCn3c4ccccc4c4ccc5c(c43)C(=O)C=CC5=O)c21 | > 100 µM | > 100 µM | > 100 µM | > 100 µM | > 100 µM | > 100 µM | > 100 µM | > 100 µM | > 100 µM | > 100 µM | > 100 µM | –
COc1ccc(N/N=C2\CCOc3ccc(C)cc3C2=O)cc1 | 66 µM | 41.8 µM | 42.4 µM | > 100 µM | > 100 µM | > 100 µM | > 100 µM | > 100 µM | 54.6 µM | > 100 µM | > 100 µM | –
COc1cc(Br)cc2cc(-c3cn4ccsc4n3)c(=O)oc12 | > 100 µM | > 100 µM | > 100 µM | > 100 µM | > 100 µM | > 100 µM | > 100 µM | > 100 µM | > 100 µM | > 100 µM | > 100 µM | –
COC(=O)C([C@H](NC1(c2ccccc2)c2ccccc2-c2ccccc21)C(=O)OC)N(NC(=O)OCc1ccccc1)C(=O)OCc1ccccc1 (mixture of isomers) | > 100 µM | > 100 µM | > 100 µM | > 100 µM | > 100 µM | > 100 µM | > 100 µM | > 100 µM | > 100 µM | > 100 µM | > 100 µM | –
CCOC(=O)/C=C/CC(C)(C)CCOC(C)=O | > 10 µM | > 10 µM | > 10 µM | > 10 µM | > 10 µM | > 10 µM | > 10 µM | > 10 µM | > 10 µM | > 10 µM | > 10 µM | –
CC(=O)OC1CC(OC2C(O)CC(OC3C(O)CC(OC4CCC5(C)C(CCC6C5CC(O)C5(C)C(C7=CC(=O)OC7)CCC65O)C4)OC3C)OC2C)OC(C)C1OC1OC(CO)C(O)C(O)C1O (configuration not stated) | 0.207 µM | 0.107 µM | 0.633 µM | 0.0399 µM | 0.139 µM | 0.235 µM | 0.0891 µM | 0.179 µM | 0.767 µM | 0.112 µM | 0.957 µM | 19.4 nM
N#Cc1c(-c2ccccc2)/c(=C\Nc2cccc(C(F)(F)F)c2)c(=O)n2c1nc1ccccc12 | > 100 µM | > 100 µM | > 100 µM | > 100 µM | > 100 µM | > 100 µM | 37.8 µM | 22.1 µM | > 100 µM | 50.5 µM | > 100 µM | –
CC[C@@H]1CC[C@@H]2[C@H](CC[C@]3(C)[C@@H](OC(C)=O)CC[C@@H]23)[C@H]1COC(C)=O | 45 µM | > 100 µM | > 100 µM | 59.2 µM | 31.7 µM | > 100 µM | 67.9 µM | > 100 µM | 65.6 µM | 60.9 µM | > 100 µM | –
COc1cc2nc3n(c(=O)c2cc1OC)-c1ccc([N+](=O)[O-])cc1C3=O | > 100 µM | > 100 µM | > 100 µM | > 100 µM | > 100 µM | > 100 µM | > 100 µM | 35 µM | > 100 µM | > 100 µM | > 100 µM | –
Nn1c(-c2ccccc2)nn(C(=O)c2ccccc2)c1=O | > 100 µM | > 100 µM | > 100 µM | > 100 µM | > 100 µM | > 100 µM | > 100 µM | > 100 µM | > 100 µM | > 100 µM | > 100 µM | –
COC(=O)c1c(C)cccc1C1CN=NC12Cc1ccc(C)cc1C2=O (configuration not stated) | > 100 µM | > 100 µM | 49.8 µM | > 100 µM | 74 µM | > 100 µM | > 100 µM | > 100 µM | > 100 µM | > 100 µM | > 100 µM | –
CN(C(=O)C(Cc1ccccc1)NC(=O)OC(C)(C)C)C1(C(=O)NC(Cc2ccccc2)C(=O)OCc2ccccc2)CCCC1 (stereo not drawn) (Boc-Phe-[NMeAc5c]-Phe-OBn; configuration not given here) | 51.1 µM | > 100 µM | > 100 µM | > 100 µM | > 100 µM | > 100 µM | > 100 µM | 82.6 µM | > 100 µM | > 100 µM | > 100 µM | –
Cc1nc2n(c1/C=C1/C(=O)Nc3cccc(Cl)c31)CCS2 | 34.7 µM | > 100 µM | 54.9 µM | > 100 µM | > 100 µM | > 100 µM | 35.2 µM | > 100 µM | > 100 µM | > 100 µM | 62.5 µM | –
